# PubChem BioAssay (NCI)
# Several values for one entry are separate records, joined by “and”; a condition that tells them apart may be missing. Equal values may be shown once.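 48-hour exposure; five concentrations; linearly interpolated endpoints. Here, GI50 denotes the concentration required for 50% inhibition of growth. TGI marks complete inhibition of growth.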
# Experiments:
# Assay in all cases: NCI anticancer screen, dose series, 48 h
# [1] = system: MCF7 breast
# [2] = system: OVCAR-4 ovarian
# [3] = system: UO-31 renal
# [4] = system: NCI-H522 lung
# [5] = system: KM12 colon
# [6] = system: HL-60(TB) leukemia
# [7] = system: UACC-62 melanoma
# [8] = system: LOX IMVI melanoma
# [9] = system: TK-10 renal
# [10] = system: HOP-92 NSCLC
SMILES,GI50 [1],TGI [1],GI50 [2],TGI [2],GI50 [3],TGI [3],GI50 [4],TGI [4],GI50 [5],TGI [5],GI50 [6],TGI [6],GI50 [7],TGI [7],GI50 [8],TGI [8],GI50 [9],TGI [9],GI50 [10],TGI [10]
COc1cc2cc(Oc3ccc(NC(=O)c4cccc(C(F)(F)F)c4)cc3)c(C)nc2cc1OC,3.47 µM,24.3 µM,3.68 µM,> 100 µM,4.59 µM,> 100 µM,2.81 µM,> 100 µM,4.03 µM,> 100 µM,3.84 µM,> 100 µM,5.27 µM,> 100 µM,4.36 µM,> 100 µM,5.18 µM,> 100 µM,3.08 µM,33.2 µM
N/C(=N\OC(=O)c1ccccc1)C(C(=O)NOC(=O)c1ccccc1)C1CCCCC1 (configuration not stated),8.22 µM,23 µM,9.4 µM,37.6 µM,2.01 µM,3.96 µM,2.82 µM,7.76 µM,11.4 µM,25.1 µM,2.38 µM,6.07 µM,11.4 µM,32.9 µM,0.343 µM,1.38 µM,12.4 µM,26.9 µM,2.39 µM,7.72 µM
CC1=C(C(=O)NC2CCCCC2)CC(C(=O)NC2CCCCC2)=C(C)N1,–,> 100 µM,–,> 100 µM,–,> 100 µM,–,> 100 µM,–,> 100 µM,–,> 100 µM,–,> 100 µM,–,> 100 µM,–,> 100 µM,–,> 100 µM
COC(=O)c1ccc2c(c1)C(NC(C)=O)CCc1cc(OC)c(OC)c(OC)c1-2 (configuration not stated),–,> 100 µM,–,> 100 µM,–,> 81 µM,–,0.074 µM,–,0.219 µM,–,0.0285 µM,–,> 100 µM,–,> 96.5 µM,–,> 100 µM,–,13.1 µM
CC1(C)N=C(N)N=C(N)N1c1ccc(CCc2ccccc2)c(Cl)c1,0.058 µM,13 µM,0.52 µM,13.1 µM,8.12 µM,> 100 µM,0.236 µM,12.7 µM,0.0994 µM,7.61 µM,0.0473 µM,2.72 µM,0.0572 µM,11.7 µM,0.0426 µM,13.5 µM,1.96 µM,18.3 µM,1.14 µM,9.51 µM
CSc1ccc(/C=C2\CNC/C(=C\c3ccc(SC)cc3)C2=O)cc1,> 371 µM and 58.8 µg/mL,> 371 µM and 150 µg/mL,> 371 µM and 18.7 µg/mL,> 371 µM and 28.7 µg/mL,150 µg/mL,> 371 µM and 150 µg/mL,22.3 µg/mL,> 161 µM and 63.5 µg/mL,150 µg/mL,> 371 µM and 150 µg/mL,15.2 µg/mL,362 µM and 99.8 µg/mL,93.5 µg/mL,> 214 µM and 150 µg/mL,7.76 µM and 150 µg/mL,> 371 µM and 150 µg/mL,–,> 165 µM,31.9 µM and 27 µg/mL,233 µM and 83.2 µg/mL
CC(O)CNC1=CC(=O)C(=O)c2ccccc21 (configuration not stated),–,48.7 µM,–,26 µM,–,34 µM,–,41.8 µM,–,56.2 µM,–,84.4 µM,–,26.8 µM,–,34.8 µM,–,70.4 µM,–,53.3 µM
Cc1cccc(NC(=O)c2sc3nc4c(cc3c2N)CCCC4)c1C,0.339 µM,> 100 µM,1.48 µM,> 100 µM,–,> 100 µM,0.269 µM,> 100 µM,0.342 µM,> 100 µM,0.266 µM,0.941 µM,0.533 µM,> 100 µM,0.598 µM,> 100 µM,23.3 µM,> 100 µM,0.7 µM,> 100 µM
C=C1C(=O)O[C@@H]2C[C@@]3(C)CC(=O)C=C(C)[C@@H]3C[C@H]12,–,14.9 µM,–,23.2 µM,–,24.1 µM,–,20.3 µM,–,37.9 µM,–,4.08 µM,–,30.4 µM,–,38.1 µM,–,25.7 µM,–,55 µM
COc1cc(Nc2ccnc(N3CCN(c4ccnc5cc(Cl)ccc45)CC3)n2)cc(OC)c1,0.198 µM,> 25.6 µM,0.477 µM,> 45.1 µM,0.938 µM,> 30.7 µM,0.874 µM,4.48 µM,0.101 µM,> 100 µM,2.58 µM,> 100 µM,0.614 µM,3.76 µM,0.749 µM,5.68 µM,2.22 µM,> 100 µM,0.431 µM,6.61 µM
CCc1nc(N)nc(N)c1-c1ccc([N+](=O)[O-])c(NCc2ccccc2)c1,–,40.2 µM,–,58.1 µM,–,22.2 µM,–,35.6 µM,–,49.2 µM,–,18.7 µM,–,35.7 µM,–,45.4 µM,–,53.2 µM,–,25.9 µM
CNC(=O)Nc1ccc(-c2nc(N3CCOCC3)nc3c2cnn3C2CCOCC2)cc1,0.0784 µM,> 100 µM,0.191 µM,–,0.0435 µM,0.544 µM,0.43 µM,> 100 µM,0.384 µM,> 100 µM,1.01 µM,> 100 µM,0.182 µM,1.19 µM,0.161 µM,> 100 µM,0.172 µM,1.47 µM,0.0371 µM,0.526 µM
CC[C@H](C)[C@H](NC(=O)c1cnccn1)C(=O)N(C)[C@H](C[C@@H](OC(C)=O)c1nc(C(=O)N[C@@H](Cc2ccccc2)C[C@H](C)C(=O)OC)cs1)C(C)C,0.0909 µM,> 33.3 µM,2.52 µM,> 33.3 µM,2.23 µM,> 33.3 µM,0.0552 µM,2.49 µM,0.107 µM,> 33.3 µM,0.9 µM,2.24 µM,0.105 µM,> 33.3 µM,1.63 µM,> 33.3 µM,7.18 µM,> 33.3 µM,0.416 µM,11.4 µM
Clc1ccc(COC(Cn2ccnc2)c2ccc(Cl)cc2Cl)cc1 (configuration not stated),2.43 µM,6.63 µM and 28.7 µM and 24 µM,2.29 µM,13.6 µM and 27.7 µM and 24.5 µM,1.44 µM,5.91 µM and 17.4 µM and 14.6 µM,0.282 µM,2.43 µM and 18.5 µM and 22.8 µM,3.18 µM,11 µM and 29.5 µM and 28.4 µM,2.42 µM,5.2 µM and 22.7 µM and 16.6 µM,2.16 µM,11.9 µM and 25.2 µM and 22.3 µM,0.533 µM,–,2.68 µM,7.15 µM and 29 µM and 23.9 µM,0.511 µM,3.42 µM and 24.1 µM and 25.2 µM
N#CC(C#N)SCc1ccccc1,–,> 100 µM,–,> 100 µM,–,> 100 µM,–,57.7 µM,–,> 100 µM,–,14.7 µM,–,> 93.1 µM,–,> 19.8 µM,–,> 100 µM,–,> 87.4 µM
CC(CO)[C@H]1OC(=O)C=C2[C@@]13O[C@@H]3[C@H]1OC(=O)[C@@]3(C)[C@H]4O[C@H]4C[C@@]2(C)[C@@H]13 (some centres not stated),–,8.05 µM,–,> 24.3 µM,–,6.41 µM,–,5.38 µM,–,14.9 µM,–,–,–,7.36 µM,–,1.14 µM,–,> 28.2 µM,–,> 26.9 µM
COc1cc(-c2oc3ccccc3c(=O)c2O)cc(OC)c1OC,–,> 100 µM,–,> 100 µM,–,> 100 µM,–,> 80.3 µM,–,> 100 µM,–,> 28.1 µM,–,> 100 µM,–,> 100 µM,–,> 88.5 µM,–,44 µM
Cc1ccc(C(=O)/C(=C/c2ccc([N+](=O)[O-])cc2)S(=O)Cc2ccccc2)cc1 (configuration not stated),0.372 µM,2.2 µM,1.35 µM,2.78 µM,1.17 µM,2.55 µM,1.46 µM,2.9 µM,1.56 µM,3.4 µM,1.59 µM,5.81 µM,1.3 µM,2.79 µM,0.417 µM,1.67 µM,1.78 µM,3.26 µM,1.41 µM,3.22 µM
CC1(C)CCC(C)(C)c2cc(C(=O)Nc3ccc(C(=O)O)cc3)ccc21,–,> 100 µM,–,67.1 µM,–,30.7 µM,–,70.6 µM,–,> 61.4 µM,–,> 53.1 µM,–,41.2 µM,–,> 58.2 µM,–,> 73.3 µM,–,> 100 µM
COC1/C=C/OC2(C)Oc3c(C)c(O)c4c(c3C2=O)C(=O)C=C(NC(=O)/C(C)=C\C=C\C(C)C(OC=O)C(C)C(O)C(C)C(OC(C)=O)C1C)C4=O (configuration not stated),–,7.29 µM,–,19.1 µM,–,29.6 µM,–,6.33 µM,–,45.9 µM,–,5.88 µM,–,27.9 µM,–,14.1 µM,–,30.4 µM,–,28.8 µM
CN1CCCN(CCNc2nccc(-c3c(-c4cccc(O)c4)nc4sccn34)n2)S1(=O)=O,22.1 µM and 18.8 µM,75 µM and > 100 µM,6.72 µM and 8.49 µM,52.2 µM and > 100 µM,5.2 µM and 6.46 µM,39 µM and > 87.2 µM,5.54 µM and 9.27 µM,27.2 µM and 42.1 µM,11.7 µM and 9.82 µM,32.5 µM and 55.8 µM,14.1 µM and 11.3 µM,38.3 µM and 32 µM,0.0417 µM and 0.0537 µM,1.4 µM and 2.22 µM,1.55 µM and 1.99 µM,16.7 µM and 21.5 µM,13 µM and 11.6 µM,64.6 µM and 73.2 µM,12.1 µM and 16 µM,51.6 µM and 77.5 µM
Cc1cc(N(CCNc2ccnc3cc(Cl)ccc23)Cc2ccc3c(c2)OCO3)nc(N2CCN(C)CC2)n1,2.4 µM,10.9 µM,2.83 µM,13.9 µM,1.43 µM,2.85 µM,1.85 µM,3.81 µM,4.42 µM,17.7 µM,2.06 µM,4.27 µM,1.9 µM,3.51 µM,1.79 µM,3.66 µM,1.81 µM,3.61 µM,1.29 µM,2.96 µM
O=C(Nc1ccc(OC(F)(F)F)cc1)c1sccc1NCc1ccnc2ccccc12,4.19 µM,36 µM,4.57 µM,> 100 µM,2.34 µM,26.1 µM,3 µM,> 72 µM,3.85 µM,> 56.9 µM,1.78 µM,19.3 µM,1.89 µM,14.9 µM,2.85 µM,13.5 µM,4.87 µM,98.6 µM,2.5 µM,19 µM
C#C[C@]1(O)CC[C@H]2[C@@H]3CC=C4c5nc(Nc6ccccn6)sc5CC[C@]4(C)[C@H]3CC[C@@]21C,0.968 µM,3.73 µM,2.94 µM,9.42 µM,1.21 µM,2.64 µM,1.86 µM,4.12 µM,1.7 µM,4.5 µM,0.398 µM,1.96 µM,1.15 µM,2.68 µM,1.29 µM,2.59 µM,2.22 µM,5.08 µM,1.8 µM,4.43 µM
NS(=O)(=O)c1ccc(N2Cc3cc(Cl)ccc3OC3=C2C(=O)N(CC2CCCCC2)C3=O)cc1,0.364 µM,1.9 µM,0.897 µM,2.46 µM,1.1 µM,2.32 µM,0.273 µM,0.676 µM,1.83 µM,4.08 µM,0.283 µM,0.828 µM,0.377 µM,1.61 µM,1.01 µM,2.32 µM,1.22 µM,2.48 µM,1.31 µM,2.67 µM
Cc1cc2c(cc1C)NC1=C(N2)OC(c2c[nH]c3ccc(COc4ccccc4)cc23)C1=O (configuration not stated),–,> 100 µM,–,> 100 µM,–,> 100 µM,–,> 100 µM,–,> 100 µM,–,> 100 µM,–,> 100 µM,–,> 100 µM,–,> 100 µM,–,> 100 µM
Nc1cc2c3c(cccc3c1)NC2=O,–,> 100 µM,–,> 100 µM,–,> 100 µM,–,74 µM,–,> 100 µM,–,> 100 µM,–,> 100 µM,–,> 100 µM,–,> 100 µM,–,> 100 µM
COc1ccc(C2SC(N)=Nc3c2c(C)nn3C(=O)c2ccc(Cl)cc2)cc1OC (configuration not stated),–,> 10 µM,–,> 10 µM,–,–,–,> 10 µM,–,> 10 µM,–,> 10 µM,–,> 10 µM,–,> 10 µM,–,> 10 µM,–,> 10 µM
CC(=O)c1cccc(N(/C=C/C(=O)C(F)(F)F)CC(=O)c2ccc(Cl)cc2)c1,> 100 µM,> 100 µM,> 100 µM,> 100 µM,> 100 µM,> 100 µM,> 100 µM,> 100 µM,> 100 µM,> 100 µM,–,–,> 100 µM,> 100 µM,> 100 µM,> 100 µM,> 100 µM,> 100 µM,> 100 µM,> 100 µM
